# Data taken from BindingDB's records for patent US9161922 (Case Western Reserve University, 2015).
# Molecular target: Primary amine oxidase, liver isozyme (Bos taurus, UniProt Q29437)
# Experiment: Inhibition Assay
# Settings: pH 7.2; 30 °C
# Experimental: In the following Examples, 0.9 mL aliquots of a solution of candidate inhibitor in 100 mM potassium phosphate buffer, pH 7.2 was mixed bovine plasma amine oxidase (0.1 mL, about […]) and incubated at 30° C. aerobically. Aliquots (0.1 mL) were periodically withdrawn using disposable calibrated Drummond micropipettes and diluted with 1.0 mL of benzylamine (5 mM in 50 mM sodium phosphate buffer, pH 7.2) in a 1 cm quartz cuvette (1.5 mL volume). The rate of oxidation of benzylamine to benzaldehyde was measured by recording the increase in absorbance at 250 nm for 1 minute and compared to the rate of benzylamine oxidation in a companion control solution of enzyme without inhibitor. The concentration of active BPAO was estimated from the rate of benzylamine oxidation. Inhibitory potency values (IC50 values) and partition values for inactivation of BPAO were measured at various times as in indicated in the Tables.
# Primary amine oxidase, liver isozyme, sequence (Q29437 17-762 limits assumed): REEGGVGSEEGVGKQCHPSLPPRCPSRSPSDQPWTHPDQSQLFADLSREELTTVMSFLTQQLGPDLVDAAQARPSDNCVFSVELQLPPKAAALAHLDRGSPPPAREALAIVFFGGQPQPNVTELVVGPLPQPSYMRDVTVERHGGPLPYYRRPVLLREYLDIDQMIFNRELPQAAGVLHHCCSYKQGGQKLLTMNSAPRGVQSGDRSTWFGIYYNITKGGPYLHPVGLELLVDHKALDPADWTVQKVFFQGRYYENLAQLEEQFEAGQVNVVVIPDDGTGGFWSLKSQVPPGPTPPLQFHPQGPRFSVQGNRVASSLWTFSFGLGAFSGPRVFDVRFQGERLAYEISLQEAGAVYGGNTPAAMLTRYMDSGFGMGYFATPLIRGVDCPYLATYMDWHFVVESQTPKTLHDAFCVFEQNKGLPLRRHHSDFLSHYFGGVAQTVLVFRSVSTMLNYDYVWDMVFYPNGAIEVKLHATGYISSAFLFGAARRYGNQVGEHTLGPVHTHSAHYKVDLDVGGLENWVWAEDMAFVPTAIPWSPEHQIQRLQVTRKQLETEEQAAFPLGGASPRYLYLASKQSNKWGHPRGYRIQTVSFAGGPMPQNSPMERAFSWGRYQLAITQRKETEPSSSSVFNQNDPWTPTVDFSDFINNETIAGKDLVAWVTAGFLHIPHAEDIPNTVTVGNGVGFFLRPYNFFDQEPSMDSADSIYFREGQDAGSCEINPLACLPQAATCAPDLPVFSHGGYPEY
row,SMILES,IC50 [µM]
1,"NCC#CCNCCc1ccccc1 [US9161922, Table 1, Compound 2]",500
2,"NCC#Cc1ccccc1 [US9161922, Table 1, Compound 3]",700
3,"N#CC#CCN [US9161922, Table 1, Compound 5]",13
4,"NCC#CCN [US9161922, Table 1, Compound 6]",20
5,"NCC#CC#CCN [US9161922, Table 1, Compound 7]",9
6,"NC/C=C/CN [US9161922, Table 1, Compound 8]",2000
7,"NC/C=C(\Cl)CN [US9161922, Table 1, Compound 9]",24
8,"CC#CCCN [US9161922, Table 2, Compound 2]",10
9,"NCCC#Cc1ccccc1 [US9161922, Table 2, Compound 3]",13.5
10,"NCCC#Cc1cccnc1 [US9161922, Table 2, Compound 6]",3.6
11,"NCCC#CCc1ccccc1 [US9161922, Table 2, Compound 7]",4.6
12,"CC#CC(CN)c1ccccc1 (stereo not drawn) [US9161922, Table 2, Compound 8]",108
13,"CC#CCC(N)c1ccccc1 (stereo not drawn) [US9161922, Table 2, Compound 9]",6500
